Reference: patent US9616051B2, “Drug targets to overcome de novo drug-resistance in multiple myeloma” (H. Lee Moffitt Cancer Center and Research Institute, Inc., priority 2008, dated 2017)
Where two headings read alike, the source gives them in different places.

Key:
MCF-7 = assay: CT-Glo cytotoxicity assay, MCF-7 cells; type: cell-based; conditions: Homo sapiens, MCF7, 72-h CT-Glo, average ± SD
Description: (§1) The molecules with the highest docking scores were assayed for IC50 values. Cultures were tested for cytotoxicity using the CellTiter-Glo assay (CT-Glo cytotoxicity assay; Promega, Madison, Wis.), a luminescence-based homogeneous method for determining the number of viable cells in culture based on quantitation of the ATP present, which signals the presence of metabolically active cells (Corsino, et al., A novel class of cyclin-dependent kinase inhibitors identified by molecular docking act through a unique mechanism. J Biol Chem 2009; 284: 29945-55; Homsi, et al., Src activation in melanoma and Src inhibitors as therapeutic agents in melanoma. Melanoma Res 2009; 19: 167-75). All cells were assayed at log-phase growth conditions. Luminescence was measured with a Synergy 4 microplate reader (Bio-Tek Instruments, Inc., Winooski, Vt.). IC50 values were determined using a sigmoidal equilibrium model regression using XLfit version 5.2 (ID Business Solutions Ltd., Surrey, UK) (Corsino, et al., A novel class of cyclin-dependent kinase inhibitors identified by molecular docking act through a unique mechanism. J Biol Chem 2009; 284: 29945-55).

SK-UT = assay: CT-Glo cytotoxicity assay, SK-UT cells; type: cell-based; conditions: 72-h CT-Glo, average ± SD
Description: as §1

topo IIα [1] = molecular target: T1, topo IIα (Homo sapiens, UniProt P11388); assay: Immunofluorescence microscopy of intracellular location of topo IIα; type: cell-based; conditions: 25 μM NES inhibitor
T1 construct: effect on the intracellular location of topo IIα in treated MM cells; endogenous in cells; host or cells: human multiple myeloma cells NCI-H929
T1 sequence (P11388 whole entry): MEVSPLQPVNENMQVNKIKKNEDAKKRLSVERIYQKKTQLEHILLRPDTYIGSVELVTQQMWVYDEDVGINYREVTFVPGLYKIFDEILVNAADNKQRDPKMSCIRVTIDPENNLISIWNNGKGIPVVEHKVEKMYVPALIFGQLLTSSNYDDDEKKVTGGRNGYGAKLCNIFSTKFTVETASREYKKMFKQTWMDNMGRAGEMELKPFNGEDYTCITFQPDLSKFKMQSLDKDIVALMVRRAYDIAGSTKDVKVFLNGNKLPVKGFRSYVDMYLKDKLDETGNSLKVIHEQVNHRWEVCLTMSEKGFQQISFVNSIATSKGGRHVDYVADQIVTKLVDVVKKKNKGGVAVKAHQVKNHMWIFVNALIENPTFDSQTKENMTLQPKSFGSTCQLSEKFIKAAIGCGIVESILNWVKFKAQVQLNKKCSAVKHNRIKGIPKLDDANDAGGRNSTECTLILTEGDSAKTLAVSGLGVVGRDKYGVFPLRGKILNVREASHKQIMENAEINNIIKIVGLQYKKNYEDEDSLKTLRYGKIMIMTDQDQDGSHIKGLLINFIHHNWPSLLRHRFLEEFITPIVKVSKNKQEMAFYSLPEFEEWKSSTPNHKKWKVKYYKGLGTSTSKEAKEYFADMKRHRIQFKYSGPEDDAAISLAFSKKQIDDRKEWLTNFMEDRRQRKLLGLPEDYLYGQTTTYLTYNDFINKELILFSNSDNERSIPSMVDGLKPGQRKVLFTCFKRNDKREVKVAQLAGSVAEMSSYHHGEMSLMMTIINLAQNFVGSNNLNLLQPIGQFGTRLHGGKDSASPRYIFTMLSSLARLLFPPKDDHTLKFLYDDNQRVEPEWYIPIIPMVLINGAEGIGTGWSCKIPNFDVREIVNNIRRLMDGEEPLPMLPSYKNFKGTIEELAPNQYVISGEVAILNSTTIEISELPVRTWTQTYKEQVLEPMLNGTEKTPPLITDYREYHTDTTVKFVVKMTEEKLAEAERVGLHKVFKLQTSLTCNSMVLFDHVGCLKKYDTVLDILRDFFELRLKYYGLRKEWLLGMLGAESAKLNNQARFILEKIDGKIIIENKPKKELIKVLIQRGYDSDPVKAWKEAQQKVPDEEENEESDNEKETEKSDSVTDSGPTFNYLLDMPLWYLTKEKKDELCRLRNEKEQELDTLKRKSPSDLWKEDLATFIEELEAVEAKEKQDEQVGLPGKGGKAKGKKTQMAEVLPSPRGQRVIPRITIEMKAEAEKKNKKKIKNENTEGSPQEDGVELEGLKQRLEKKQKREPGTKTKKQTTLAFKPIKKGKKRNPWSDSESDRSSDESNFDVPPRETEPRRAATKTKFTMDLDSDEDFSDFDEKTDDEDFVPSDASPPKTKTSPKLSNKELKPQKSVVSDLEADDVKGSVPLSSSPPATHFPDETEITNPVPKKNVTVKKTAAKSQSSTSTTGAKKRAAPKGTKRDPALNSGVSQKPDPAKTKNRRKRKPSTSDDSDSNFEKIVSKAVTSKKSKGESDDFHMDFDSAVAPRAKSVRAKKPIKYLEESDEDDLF
Description: Slides were viewed with a fully automated, upright Zeiss Axio-ImagerZ.1 microscope (Carl Zeiss A G, Oberkochen, Germany). Briefly, the DAPI image was used as a mask to segment the nuclear region from the Alexa 594 image. The remaining portion of the Alexa 594 image represents the cytosol, and individual nucleus and cytosol images were analyzed.
H929 cells were mock treated with 0.1% DMSO in media or with 25 μM of NES inhibitor. The high density control cells, seen in FIG. 9(A) show high levels of topo II staining outside the nucleus, evidencing export of topo II from the nucleus.

RPMI-8226 (8226) = assay: CT-Glo cytotoxicity assay, 8226 cells; type: cell-based, human; conditions: Homo sapiens, RPMI-8226
Text: Compounds identified in Example 1 as the top scoring potential inhibitors for each of the two NES (20 each) were obtained from NCI and structures of these molecules confirmed using NMR and mass spectroscopy analysis, seen in FIGS. 4(A)-(C) and 5(A)-(D). The potential inhibitors were followed up using in vitro model cell cultures. MM cell lines NCI-H929 (H929) and RPMI-8226 (8226) were obtained from and tested for authenticity by the American Type Culture Collection (Manassas, Va.). All cell lines were grown as described previously (Turner, et al., Human topoisomerase IIalpha nuclear export is mediated by two CRM-1-dependent nuclear export signals. J Cell Sci 2004; 117: 3061-71).
as §1

topo IIα [2] = molecular target: T1, topo IIα; assay: Nuclear-cytoplasmic fractionation and Western blot for topo IIα; type: cell-based; conditions: high-density RPMI-H929 cells, 25 μM, FIG. 13 legend
Description: FIGS. 13(A) and (B) are blots from nuclear (nuc)-cytoplasmic (cyto) fractionation of high-density MM cells (n=2). […] Human myeloma RPMI-H929 cells were treated for 24 hours. Cells were then chemically separated into nuclear and cytoplasmic fractions.
Human myeloma cells were placed at plateau concentrations (4×10^6 cells/ml), and NES inhibitors were added at 25 μM for 20 hours. Cells were collected, washed in PBS, and fractionated by a method adapted from Li et al. (Li Y, Bor Y C, Misawa Y, Xue Y, Rekosh D, Hammarskjold M L. An intron with a constitutive transport element is retained in a Tap messenger RNA. Nature 2006; 443: 234-7). Separated fractions containing nuclei or precipitated cytosol were dissolved in 2% SDS buffer and assayed by SDS-PAGE Western blot analysis. Blots were probed with an anti-topo IIα Kis1 antibody (Millipore Corp.). […] Cells grown at log-phase concentrations were also fractionated. After MM cells were treated with NCI-9138 at 25 μM for 20 hours, CRM1-topo IIα complexes were isolated from cells by immunoprecipitation using a combination of both protein A and protein G magnetic beads according to the manufacturer's protocol (Miltenyi Biotec, Cologne, Germany). Co-immunoprecipitation was performed with 2 μg of anti-CRM1 antibody (Santa Cruz Biotechnology, Inc., Santa Cruz, Calif.). Immunoprecipitation samples were separated by SDS-PAGE, transferred to nitrocellulose membranes, and probed with anti-topo IIα Kis1 antibody (Millipore, Corp., Billerica, Mass.) and anti-mouse horseradish peroxidase secondary antibody.

O=C1c2ccccc2C(=O)C1C(=O)C(c1ccccc1)c1ccccc1 [NCI-9138, 2-(diphenylacetyl)-1H-indene-1,3(2H)-dione]
IC50 (MCF-7): 27.2 µM
IC50 (SK-UT): 29.2 µM
Nuclear export of topo IIα by immunofluorescence (topo IIα [1]; 20 hours, high-density (plateau) MM cells): overlapping staining of topo II with DAPI
Fold-increase nuclear topo IIα (topo IIα [1]; H929 cells, nucleus v cytoplasm fluorescence vs untreated high-density controls): 2.61 fold
IC50 (RPMI-8226 (8226); 8226 cells, 72-h CT-Glo, log-phase (low-density), average ± SD, read-out: IC50): 12.7 ± 4.5 µM
IC50 (RPMI-8226 (8226); high-density cells, single agent (data not shown), read-out: IC50, viability of high-density cells): 9.4 µM
Export of topo IIα, nuclear-cytoplasmic fractionation (topo IIα [2]): strongly blocked export of topo IIα
